Here are results for three molecules from patent EP1323432A1, “Complexes of cyclodextrins with potassium ion homeostasis regulators” (priority 2001, dated 2003).

In data set [1] the test system is Wistar Kioto male rats. As to the kind of experiment: Treadmill exercise: average duration of effort and recovery times after effort. The data set is classed as in vivo. The note with it: for average duration of the effort on the treadmill: after day 14 of treatment, oral by endogastric tube for 30 days; for average duration of the effort on the treadmill / Average recovery times after effort: versus placebo; for effort lasting (duration of the repeated effort on a treadmill) / rats able to sustain the effort on a treadmill already 30 minutes after suspending their exercise / time after which the remaining rats were able to repeat the effort: day 30; for effort lasting (duration of the repeated effort on a treadmill): effort repeated 30 minutes after end of exercise; for effort lasting (duration of the repeated effort on a treadmill) / time after which the remaining rats were able to repeat the effort: same doses as E4; for rats able to sustain the effort on a treadmill already 30 minutes after suspending their exercise: oral, complex 1 360 µg/kg/day, 0.4 mg/kg/day (complex 2 3 mg/kg/day), 6 mg/kg/day (complex 3 50 mg/kg/day); for time after which the remaining rats were able to repeat the effort: rats not able to repeat at 30 minutes; for Average recovery times after effort: day 30 of treatment. On the procedure:
(§1) Wistar Kioto male rats weighing 350 g were divided into nine groups of eight animals each (numbered 1 to 8 for each test group) and were treated with amounts of complex 1 equal to 20 µg/kg/day or 40 µg/kg/day of noncomplexed active ingredient, of complex 2 equal to 0.4 mg/kg/day of noncomplexed active ingredient and of complex 3 equal to 6 mg/kg/day of noncomplexed active ingredient, orally with an endogastric tube for 30 days, during which the animals were exercised and tested. The tested doses were the minimum ones required to restore blood K^+ levels after exercise. • Placebo group treated with physiological solution enriched with hydroxypropyl-β-cyclodextrin; • Group treated with 20 µg/kg/day of 6-[1-piperidinyl]pyrimidine-2,4-diamine-3-oxide; • Group treated with […]/day of 6-[1-piperidinyl]pyrimidine-2,4-diamine-3-oxide; • Group treated with 180 µg/kg/day of complex 1; • Group treated with 360 µg/kg/day of complex 1; • Group treated with 0.4 mg/kg/day of [±]-N-cyano-N-4-pyridinyl-N-[1,2,2-trimethylpropyl]-guanidine; • Group treated with 3 mg/kg/day of complex 2; • Group treated with 6 mg/kg/day of N-[5-sulfamoyl-1,3,4-thiadiazol-2-yl]acetamide; • Group treated with 50 mg/kg/day of complex 3.
(§2) Levels of venous plasma K^+ taken from the femoral vein before and after exercise were also measured once a week per rat in animals anesthetized with chloral hydrate at a dose of 0.5 g/kg.
Each test group was subjected to daily trials at an initial speed of 15 m/min. In the second week, the speed was increased to 25 m/min, in the third week it was raised to 35 m/min, and in the fourth week it was increased to 45 m/min. Administration was performed in the morning.
The treadmill was equipped with a sensor which was sensitive to the weight of the rat, set to a generated weight force of 60 g/30 sec, and inserted in the rear wall of the time measurement chamber.

Data set [2] relates to venous plasma K^+. As to the kind of experiment: Venous plasma K^+ levels before and after treadmill exercise. Format: in vivo, Wistar Kioto male rats. Particulars: for K^+ values 30 minutes after the end of the administration: 0.4 mg/kg/day (complex 2 3 mg/kg/day), 6 mg/kg/day (complex 3 50 mg/kg/day); for levels of K^+ of the animals that did not respond to treatment: up to 100 minutes after the end of the effort. As to the method: as §1, §2

Data set [3] is described as follows: Undesirable effects: hypotension (pressure measured with flow meter). Also noted: species or system rats. The note with it: rat, in vivo. On the procedure: Pressure measurements were made by means of a T206 dual-channel flow meter by Transonic System Inc (Ithaca, NY, USA). In the control animals not subjected to stress or pharmacological treatments, pressure was 91±7 mm Hg (N=56 rats). The pressure values of the animals in our test groups prior to the beginning of pharmacological treatment were between 85 mm Hg and 105 mm Hg. The pressures were measured in the morning, at rest, prior to administration. […] The observed variations remained constant to the end of the treatment. […] The pressure values used to plot the chart refer to the values from day 21 to day 30 of treatment (Chart 4). [formula]

For data set [4] the following is noted: rat, in vivo.
Data set [5] relates to venous plasma K^+. As to the kind of experiment: Venous plasma K^+ levels before and after treadmill exercise. Format: in vivo, Wistar Kioto male rats. The note with it: 5 animals per group; up to 100 minutes after the end of the effort; complex 1 180 µg/kg/day, noncomplexed 20 µg/kg/day.
For data set [6], the system named is animal models. Particulars: doses of 1.5-5 mg/day, noncomplexed form; cited from earlier work.
Data set [7] relates to patients affected by hypokalemias. The note with it: guanidine 25 mg/day or more, acetamide 100 and 500 mg/day; cited from earlier work.
The mark [8] stands for this setting: animals that responded to treatment.
Setting [9] is: animals that responded to treatment, same doses as E13.

Regarding `Nc1cc(N2CCCCC2)nc(N)[n+]1[O-]` [6-[1-piperidinyl]pyrimidine-2,4-diamine-3-oxide], in data set [1], the “average duration of the effort on the treadmill” value (“average duration of the effort” for short) is “significantly longer”, the “effort lasting (duration of the repeated effort on a treadmill)” value (“effort lasting” for short) worked out at 7.2 ± 1 min, the “rats able to sustain the effort on a treadmill already 30 minutes after suspending their exercise” value (“rats able to sustain the effort” for short) was 6 rats out of 8 and the “time after which the remaining rats were able to repeat the effort” value was determined as 90 min. For the same molecule, the “Average recovery times after effort” value in data set [1] was “reduced significantly”. Further, the “rats that responded to the treatment in terms of both functional and blood parameters” value in data set [1] (low dose: complex 1 180 µg/kg/day, noncomplexed 20 µg/kg/day) is listed as 3 rats out of 8. The “values of K^+ 30 minutes after the end of the effort” value in data set [2] worked out at 5.2±2 mEq/l. In addition, in data set [2] (after the end of the effort), the “levels of venous K^+ after 100 minutes” value is given as 4.5±1 mEq/l and the “values of K^+ after 60 minutes” value was 4.2±1 mEq/l. Besides, the “reduction in average pressure” value in data set [3] is on record as 8%. The “average rate increase (heart rate)” value in data set [4] was found to be 10±2%. The “K^+ levels of the animals that did not respond to the treatment” value in data set [5] is given as “lower than 3 mEq/l”. In addition, in data set [6], the “effect on muscular weakness and muscular invalidity” value was “capable of preventing muscular weakness and muscular invalidity”.

With `CC(=O)Nc1nnc(S(N)(=O)=O)s1` [N-[5-sulfamoyl-1,3,4-thiadiazol-2-yl]acetamide], in data set [1], the “average duration of the effort” value is reported as “significantly longer”, the “effort lasting” value was determined as 7 ± 2 min, the “rats able to sustain the effort” value was 4 rats out of 8 and the “time after which the remaining rats were able to repeat the effort” value was 80 min. The “Average recovery times after effort” value in data set [1] is given as “reduced significantly”. In data set [2] (setting [8]), the “K^+ values 30 minutes after the end of the administration” value worked out at 6.2±2 mEq/l. For the same molecule, in data set [2] (setting [9]), the “K^+ values after 60 minutes” value turned out to be 5.8±1 mEq/l and the “levels of venous K^+ after 100 minutes” value is listed as 5.6±1 mEq/l. The “levels of K^+ of the animals that did not respond to treatment” value in data set [2] (same doses as E13) was “below 3 mEq/l”. Moreover, the “reduction in average pressure” value in data set [3] is 15%. In addition, the “average rate increase (heart rate)” value in data set [4] is given as 9±2%. Further, the “effect on muscular weakness, paralysis attacks and symptoms” value in data set [7] is “useful in reducing symptoms and muscular invalidity caused by exercise”.

Regarding “[±]-N-cyano-N-4-pyridinyl-N-[1,2,2-trimethylpropyl]-guanidine”, in data set [1], the “average duration of the effort” value is “significantly longer”, the “effort lasting” value stood at 7.4 ± 1 min, the “rats able to sustain the effort” value is given as 5 rats out of 8 and the “time after which the remaining rats were able to repeat the effort” value stood at 70 min. Besides, the “Average recovery times after effort” value in data set [1] is “reduced significantly”. Further, in data set [2] (setting [8]), the “K^+ values 30 minutes after the end of the administration” value was 5.2±2 mEq/l. Besides, in data set [2] (setting [9]), the “K^+ values after 60 minutes” value amounted to 4.8±1 mEq/l and the “levels of venous K^+ after 100 minutes” value was 4.6±1 mEq/l. Moreover, the “levels of K^+ of the animals that did not respond to treatment” value in data set [2] (same doses as E13) is recorded as “below 3 mEq/l”. For the same molecule, the “reduction in average pressure” value in data set [3] was found to be 13%. For the same molecule, the “average rate increase (heart rate)” value in data set [4] is recorded as 14±2%. The “effect on muscular weakness, paralysis attacks and symptoms” value in data set [7] is “capable of reducing muscular weakness and the frequency of paralysis attacks”.
